Laboratory results: BigSolDB 2.1

C1=Cc2cccc3cccc1c23
Settings | solubility (mole fraction)
in ethanol, 278.1 K | 0.00462
in ethanol, 283.53 K | 0.00579
in ethanol, 288.25 K | 0.00709
in ethanol, 293.25 K | 0.00891
in ethanol, 298.2 K | 0.0108
in ethanol, 303.2 K | 0.0133
in ethanol, 308.2 K | 0.0165
in ethanol, 313.05 K | 0.0197
in ethanol, 318.25 K | 0.0245
in ethanol, 323.15 K | 0.0296
in isopropanol, 278.3 K | 0.00469
in isopropanol, 283.07 K | 0.00592
in isopropanol, 288.33 K | 0.0077
in isopropanol, 293.2 K | 0.00967
in isopropanol, 298.07 K | 0.012
in isopropanol, 303.3 K | 0.0152
in isopropanol, 308.05 K | 0.0189
in isopropanol, 312.95 K | 0.0236
in isopropanol, 318.4 K | 0.0302
in isopropanol, 323.25 K | 0.0372
in n-butanol, 278.25 K | 0.0101
in n-butanol, 283.05 K | 0.0122
in n-butanol, 288.05 K | 0.0154
in n-butanol, 293.25 K | 0.019
in n-butanol, 298.25 K | 0.0237
in n-butanol, 303.15 K | 0.029
in n-butanol, 308.1 K | 0.0349
in n-butanol, 313.2 K | 0.0427
in n-butanol, 318.05 K | 0.0525
in n-butanol, 323.05 K | 0.0639
in toluene, 278.47 K | 0.104
in toluene, 283.33 K | 0.122
in toluene, 288.1 K | 0.142
in toluene, 293.15 K | 0.167
in toluene, 298.23 K | 0.194
in toluene, 303.15 K | 0.224
in toluene, 307.95 K | 0.256
in toluene, 312.95 K | 0.299
in toluene, 318.3 K | 0.346
in toluene, 323.2 K | 0.398
